Here are results for two compounds from ChEMBL document CHEMBL4321812, “Structure-based rational design of staurosporine-based fluorescent probe with broad-ranging kinase affinity for kinase panel application” (Bioorg Med Chem Lett, 2019).

Each structure is given as a SMILES string.

The target in test [1] is Serine/threonine-protein kinase Chk1 (Homo sapiens, UniProt O14757). Briefly: Binding affinity to recombinant human full-length N-terminal His-tagged CHEK1 expressed in baculovirus expression system using CHKtide as substrate incubated for 1 hr by TR-FRET assay.
Test [2] has as its target cAMP-dependent protein kinase catalytic subunit PRKX (Homo sapiens, UniProt P51817). In words: Binding affinity to recombinant full-length N-terminal His-FLAG-GST-tagged PRKX (unknown origin) expressed in baculovirus infected Sf9 insect cells incubated for 1 hr by TR-FRET assay.
The target of test [3] is Tyrosine-protein kinase ZAP-70 (Homo sapiens, UniProt P43403). In words: Binding affinity to recombinant full-length N-terminal His-FLAG-GST-tagged ZAP70 (unknown origin) expressed in baculovirus infected Sf9 insect cells incubated for 1 hr by TR-FRET assay.
In another test the target is Ephrin type-B receptor 2 (Homo sapiens, UniProt P29323). Briefly: Binding affinity to recombinant N-terminal His-FLAG-GST-tagged EPHB2 (unknown origin) (581 to 986 residues) expressed in baculovirus infected Sf9 insect cells incubated for 1 hr by TR-FRET assay.
Chain of Ephrin type-B receptor 2 (P29323 whole entry, the tested form may be a part): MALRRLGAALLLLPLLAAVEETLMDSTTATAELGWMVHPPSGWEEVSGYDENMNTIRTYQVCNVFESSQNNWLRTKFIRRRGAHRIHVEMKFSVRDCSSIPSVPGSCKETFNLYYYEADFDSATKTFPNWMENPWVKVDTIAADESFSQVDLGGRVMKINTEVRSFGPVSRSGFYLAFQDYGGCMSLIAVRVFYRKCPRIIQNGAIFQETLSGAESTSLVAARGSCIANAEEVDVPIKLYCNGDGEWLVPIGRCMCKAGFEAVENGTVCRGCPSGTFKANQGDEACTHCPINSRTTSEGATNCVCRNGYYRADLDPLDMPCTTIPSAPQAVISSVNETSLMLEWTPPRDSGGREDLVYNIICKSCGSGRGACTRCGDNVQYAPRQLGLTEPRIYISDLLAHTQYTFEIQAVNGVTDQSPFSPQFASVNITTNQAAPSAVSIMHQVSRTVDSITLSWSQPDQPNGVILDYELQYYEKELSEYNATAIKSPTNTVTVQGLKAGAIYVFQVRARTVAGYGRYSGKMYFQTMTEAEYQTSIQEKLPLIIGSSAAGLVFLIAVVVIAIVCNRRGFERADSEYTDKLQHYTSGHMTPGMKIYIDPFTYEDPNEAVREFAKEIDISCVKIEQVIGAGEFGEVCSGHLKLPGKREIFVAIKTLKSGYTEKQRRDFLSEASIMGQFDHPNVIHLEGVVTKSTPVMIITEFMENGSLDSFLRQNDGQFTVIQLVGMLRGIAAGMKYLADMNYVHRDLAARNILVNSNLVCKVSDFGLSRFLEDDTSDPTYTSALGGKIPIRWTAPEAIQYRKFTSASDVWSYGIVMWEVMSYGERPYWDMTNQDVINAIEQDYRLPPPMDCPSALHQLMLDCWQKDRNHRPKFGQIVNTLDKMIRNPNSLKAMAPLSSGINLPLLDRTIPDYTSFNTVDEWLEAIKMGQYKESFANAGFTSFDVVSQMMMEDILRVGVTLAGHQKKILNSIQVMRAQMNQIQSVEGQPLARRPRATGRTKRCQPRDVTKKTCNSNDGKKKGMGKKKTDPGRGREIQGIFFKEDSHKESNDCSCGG
The next test deals with Ephrin type-A receptor 3 (Homo sapiens, UniProt P29320). In words: Binding affinity to recombinant N-terminal His-FLAG-GST-tagged EPHA3 (unknown origin) (579 to 983 residues) expressed in baculovirus infected Sf9 insect cells incubated for 1 hr by TR-FRET assay.
Chain of Ephrin type-A receptor 3 (P29320 whole entry, the tested form may be a part): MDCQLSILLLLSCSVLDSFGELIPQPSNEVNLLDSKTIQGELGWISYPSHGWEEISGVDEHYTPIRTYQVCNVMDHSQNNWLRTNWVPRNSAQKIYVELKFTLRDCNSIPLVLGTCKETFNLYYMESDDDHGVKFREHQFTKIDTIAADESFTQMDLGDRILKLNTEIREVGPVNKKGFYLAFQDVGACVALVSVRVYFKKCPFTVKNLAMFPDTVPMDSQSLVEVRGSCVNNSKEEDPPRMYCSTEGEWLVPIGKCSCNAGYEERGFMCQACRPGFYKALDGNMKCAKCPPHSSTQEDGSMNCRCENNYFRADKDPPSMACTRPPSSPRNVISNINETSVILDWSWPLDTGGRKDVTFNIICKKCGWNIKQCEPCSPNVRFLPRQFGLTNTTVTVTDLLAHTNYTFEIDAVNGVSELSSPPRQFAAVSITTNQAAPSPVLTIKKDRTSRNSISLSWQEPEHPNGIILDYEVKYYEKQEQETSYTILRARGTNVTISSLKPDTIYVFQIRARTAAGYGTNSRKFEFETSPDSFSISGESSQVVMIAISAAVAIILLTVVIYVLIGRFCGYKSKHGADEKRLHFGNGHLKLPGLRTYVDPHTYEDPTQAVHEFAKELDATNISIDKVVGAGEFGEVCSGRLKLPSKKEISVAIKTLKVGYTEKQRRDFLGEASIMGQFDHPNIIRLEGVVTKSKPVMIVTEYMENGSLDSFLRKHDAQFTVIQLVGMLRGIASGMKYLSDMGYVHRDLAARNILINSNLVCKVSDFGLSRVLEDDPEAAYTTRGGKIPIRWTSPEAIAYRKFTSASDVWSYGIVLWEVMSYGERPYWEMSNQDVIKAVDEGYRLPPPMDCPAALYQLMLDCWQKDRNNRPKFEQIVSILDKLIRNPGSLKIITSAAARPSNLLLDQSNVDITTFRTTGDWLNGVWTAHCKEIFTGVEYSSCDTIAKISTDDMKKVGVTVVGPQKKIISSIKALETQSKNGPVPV
Test [4] addresses Tyrosine-protein kinase TXK (Homo sapiens, UniProt P42681). Briefly: Binding affinity to recombinant human N-terminal GST-tagged TXK (260 to 527 residues) expressed in baculovirus expression system using srctide as substrate incubated for 1 hr by TR-FRET assay.
Test [5] deals with MAP/microtubule affinity-regulating kinase 4 (Homo sapiens, UniProt Q96L34). Briefly: Binding affinity to recombinant full-length N-terminal His-FLAG-tagged MARK4 (unknown origin) expressed in baculovirus infected Sf9 insect cells incubated for 1 hr by TR-FRET assay.
The target in test [6] is Serine/threonine-protein kinase MRCK gamma (Homo sapiens, UniProt Q6DT37). In words: Binding affinity to recombinant full-length N-terminal His-FLAG-GST-tagged DMPK2 (unknown origin) expressed in baculovirus infected Sf9 insect cells incubated for 1 hr by TR-FRET assay.
For test [7], the target named is Dual specificity mitogen-activated protein kinase kinase 7 (Homo sapiens, UniProt O14733). In words: Binding affinity to recombinant human full-length N-terminal GST-tagged MAP2K7 (1 to 419 residues) expressed in baculovirus expression system using JNK2 as substrate incubated for 1 hr by TR-FRET assay.
Chain of Dual specificity mitogen-activated protein kinase kinase 7 (O14733 whole entry, the tested form may be a part): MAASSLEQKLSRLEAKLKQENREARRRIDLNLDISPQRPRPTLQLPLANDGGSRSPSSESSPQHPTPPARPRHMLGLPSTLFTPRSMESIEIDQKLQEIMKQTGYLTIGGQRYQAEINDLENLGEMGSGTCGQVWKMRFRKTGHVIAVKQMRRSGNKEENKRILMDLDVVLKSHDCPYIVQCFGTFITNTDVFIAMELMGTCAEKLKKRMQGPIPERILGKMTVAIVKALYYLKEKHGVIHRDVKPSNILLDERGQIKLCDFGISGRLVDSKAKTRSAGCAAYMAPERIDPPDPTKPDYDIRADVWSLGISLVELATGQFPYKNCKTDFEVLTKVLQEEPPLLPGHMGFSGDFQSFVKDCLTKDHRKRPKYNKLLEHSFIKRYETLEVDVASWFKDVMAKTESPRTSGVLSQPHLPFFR
Test [8] concerns the target Tyrosine-protein kinase JAK2 (Homo sapiens, UniProt O60674). In words: Binding affinity to recombinant N-terminal His-FLAG-GST-tagged JAK2 (unknown origin) (826 to 1132 residues) expressed in baculovirus infected Sf9 insect cells incubated for 1 hr by TR-FRET assay.
In the next test the target is Ephrin type-B receptor 6 (Homo sapiens, UniProt O15197). In words: Binding affinity to recombinant N-terminal His-FLAG-GST-tagged EPHB6 (unknown origin) (683 to 1130 residues) expressed in baculovirus infected Sf9 insect cells incubated for 1 hr by TR-FRET assay.
For test [9], the target named is Proto-oncogene tyrosine-protein kinase ROS (Homo sapiens, UniProt P08922). In words: Binding affinity to recombinant N-terminal His-FLAG-tagged ROS1 (unknown origin) (1883 to 2347 residues) expressed in baculovirus infected Sf9 insect cells incubated for 1 hr by TR-FRET assay.
Test [10] deals with Serine/threonine-protein kinase pim-2 (Homo sapiens, UniProt Q9P1W9). Briefly: Binding affinity to recombinant human full-length N-terminal GST-tagged PIM2 expressed in baculovirus expression system using S6K2 peptide as substrate incubated for 1 hr by TR-FRET assay.
The target of the next test is Ephrin type-A receptor 4 (Homo sapiens, UniProt P54764). Briefly: Binding affinity to recombinant N-terminal His-FLAG-GST-tagged EPHA4 (unknown origin) (586 to 986 residues) expressed in baculovirus infected Sf9 insect cells incubated for 1 hr by TR-FRET assay.
Test [11] has as its target Serine/threonine-protein kinase SIK3 (Homo sapiens, UniProt Q9Y2K2). In words: Binding affinity to recombinant N-terminal His-FLAG-GST-tagged SIK3 (unknown origin) (59 to 365 residues) expressed in baculovirus infected Sf9 insect cells incubated for 1 hr by TR-FRET assay.
The next test concerns the target Ephrin type-A receptor 8 (Homo sapiens, UniProt P29322). In words: Binding affinity to recombinant N-terminal His-FLAG-GST-tagged […] (unknown origin) (571 to 924 residues) expressed in baculovirus infected Sf9 insect cells incubated for 1 hr by TR-FRET assay.
The target of test [12] is Serine/threonine-protein kinase pim-3 (Homo sapiens, UniProt Q86V86). In words: Binding affinity to recombinant human full-length N-terminal GST-tagged PIM3 expressed in baculovirus expression system using S6K2 peptide as substrate incubated for 1 hr by TR-FRET assay.
For the next test, the target named is CDK2/Cyclin A2 (Homo sapiens, UniProt P24941). Briefly: Binding affinity to recombinant human full-length N-terminal GST-tagged CDK2/cyclin A2 expressed in baculovirus expression system using modified Histone H1 as substrate incubated for 1 hr by TR-FRET assay.
In test [13] the target is Tyrosine-protein kinase ABL1 (Homo sapiens, UniProt P00519). Briefly: Binding affinity to recombinant human full-length N-terminal His-tagged ABL1 expressed in baculovirus expression system incubated for 1 hr by TR-FRET assay.
For another test, the target named is Ephrin type-B receptor 4 (Homo sapiens, UniProt P54760). In words: Binding affinity to recombinant N-terminal His-FLAG-GST-tagged EPHB4 (unknown origin) (577 to 987 residues) expressed in baculovirus infected Sf9 insect cells incubated for 1 hr by TR-FRET assay.
The target in test [14] is Cyclin-dependent kinase 5/CDK5 activator 1 (Homo sapiens, UniProt Q00535). In words: Binding affinity to recombinant human full-length N-terminal GST-tagged CDK5 (1 to 292 residues)/N-terminal His6-tagged p25 (99 to 307 residues) expressed in baculovirus expression system using modified histone H1 as substrate incubated for 1 hr by TR-FRET assay.
Test [15] addresses Homeodomain-interacting protein kinase 2 (Homo sapiens, UniProt Q9H2X6). In words: Binding affinity to recombinant full-length N-terminal His-FLAG-tagged HIPK2 (unknown origin) expressed in baculovirus infected Sf9 insect cells incubated for 1 hr by TR-FRET assay.
For test [16], the target named is Mitogen-activated protein kinase 9 (Homo sapiens, UniProt P45984). In words: Binding affinity to recombinant full-length N-terminal His-FLAG-tagged MAPK9 (unknown origin) expressed in baculovirus infected Sf9 insect cells incubated for 1 hr by TR-FRET assay.

Chain of Serine/threonine-protein kinase SIK3 (Q9Y2K2 whole entry, the tested form may be a part): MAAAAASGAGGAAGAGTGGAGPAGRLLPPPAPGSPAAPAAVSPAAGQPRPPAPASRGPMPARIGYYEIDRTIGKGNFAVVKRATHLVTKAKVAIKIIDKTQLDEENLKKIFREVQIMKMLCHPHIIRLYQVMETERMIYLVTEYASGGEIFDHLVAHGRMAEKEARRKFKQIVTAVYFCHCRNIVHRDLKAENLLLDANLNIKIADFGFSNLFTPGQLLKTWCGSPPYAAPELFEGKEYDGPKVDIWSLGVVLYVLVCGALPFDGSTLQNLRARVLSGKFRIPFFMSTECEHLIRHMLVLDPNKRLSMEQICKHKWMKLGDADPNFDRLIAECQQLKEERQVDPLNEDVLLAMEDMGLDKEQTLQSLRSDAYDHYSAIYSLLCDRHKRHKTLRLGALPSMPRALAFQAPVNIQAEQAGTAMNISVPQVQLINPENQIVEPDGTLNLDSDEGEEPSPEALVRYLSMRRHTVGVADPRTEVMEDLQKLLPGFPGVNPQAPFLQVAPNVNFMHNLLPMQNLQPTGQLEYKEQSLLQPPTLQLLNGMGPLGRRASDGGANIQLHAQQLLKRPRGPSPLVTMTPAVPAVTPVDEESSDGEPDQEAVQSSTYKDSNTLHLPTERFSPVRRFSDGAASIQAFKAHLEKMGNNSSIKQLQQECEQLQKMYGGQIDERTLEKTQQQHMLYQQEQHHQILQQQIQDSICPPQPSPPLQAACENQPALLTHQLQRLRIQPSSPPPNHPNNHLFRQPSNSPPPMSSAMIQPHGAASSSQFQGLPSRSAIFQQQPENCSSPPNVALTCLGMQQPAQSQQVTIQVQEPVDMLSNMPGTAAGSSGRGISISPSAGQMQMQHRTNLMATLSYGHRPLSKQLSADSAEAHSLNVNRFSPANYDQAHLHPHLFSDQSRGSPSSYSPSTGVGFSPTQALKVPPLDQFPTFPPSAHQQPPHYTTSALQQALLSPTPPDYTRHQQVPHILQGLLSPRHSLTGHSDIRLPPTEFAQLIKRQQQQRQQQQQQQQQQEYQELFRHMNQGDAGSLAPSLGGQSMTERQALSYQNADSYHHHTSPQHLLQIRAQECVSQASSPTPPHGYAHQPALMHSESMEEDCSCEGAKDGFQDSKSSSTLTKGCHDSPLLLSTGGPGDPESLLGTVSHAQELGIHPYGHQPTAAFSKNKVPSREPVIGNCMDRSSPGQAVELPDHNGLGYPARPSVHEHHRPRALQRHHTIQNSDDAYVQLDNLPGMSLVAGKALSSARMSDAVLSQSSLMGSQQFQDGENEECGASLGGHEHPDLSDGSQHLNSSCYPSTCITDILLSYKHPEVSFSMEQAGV
Chain of Tyrosine-protein kinase JAK2 (O60674 whole entry, the tested form may be a part): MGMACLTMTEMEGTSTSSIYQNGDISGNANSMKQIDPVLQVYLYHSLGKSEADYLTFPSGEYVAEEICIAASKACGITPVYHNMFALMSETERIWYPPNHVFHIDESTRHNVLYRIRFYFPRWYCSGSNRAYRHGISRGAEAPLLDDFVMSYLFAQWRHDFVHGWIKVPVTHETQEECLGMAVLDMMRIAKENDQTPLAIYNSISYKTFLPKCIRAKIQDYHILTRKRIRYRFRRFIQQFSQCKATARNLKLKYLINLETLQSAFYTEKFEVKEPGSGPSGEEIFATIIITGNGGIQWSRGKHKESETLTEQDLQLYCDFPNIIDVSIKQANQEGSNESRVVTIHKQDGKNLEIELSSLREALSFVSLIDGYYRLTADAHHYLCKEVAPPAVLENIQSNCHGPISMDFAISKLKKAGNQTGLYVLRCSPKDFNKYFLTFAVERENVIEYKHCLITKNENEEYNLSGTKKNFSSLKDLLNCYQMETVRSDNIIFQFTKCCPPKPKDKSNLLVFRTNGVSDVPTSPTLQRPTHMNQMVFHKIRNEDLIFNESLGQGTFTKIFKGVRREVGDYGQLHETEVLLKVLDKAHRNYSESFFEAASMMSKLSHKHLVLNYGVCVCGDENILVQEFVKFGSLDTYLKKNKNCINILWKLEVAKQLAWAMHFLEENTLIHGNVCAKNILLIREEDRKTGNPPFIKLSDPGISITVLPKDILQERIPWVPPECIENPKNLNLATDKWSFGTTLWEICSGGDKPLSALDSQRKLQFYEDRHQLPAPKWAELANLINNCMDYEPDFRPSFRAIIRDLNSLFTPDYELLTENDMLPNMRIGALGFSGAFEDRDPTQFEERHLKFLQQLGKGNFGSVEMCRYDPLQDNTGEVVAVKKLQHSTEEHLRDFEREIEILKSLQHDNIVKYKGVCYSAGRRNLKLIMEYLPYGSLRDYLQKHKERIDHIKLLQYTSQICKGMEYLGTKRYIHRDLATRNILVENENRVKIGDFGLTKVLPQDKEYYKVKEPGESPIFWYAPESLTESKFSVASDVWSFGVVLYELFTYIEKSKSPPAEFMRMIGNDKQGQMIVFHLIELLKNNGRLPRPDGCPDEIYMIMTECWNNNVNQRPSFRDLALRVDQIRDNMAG

For the compound `CO[C@@H]1[C@H](NCCOCCOCCOCCNC(=O)CCC2=[N+]3C(=Cc4c(C)cc(C)n4[B-]3(F)F)C=C2)C[C@H]2O[C@]1(C)n1c3ccccc3c3c4c(c5c6ccccc6n2c5c31)C(=O)NC4`, the Kd was 20 nM in test [1]; 43 nM in test [2]; 109 nM in test [3]; 985 nM on Ephrin type-B receptor 2; 747 nM at Ephrin type-A receptor 3; 1010 nM in [4]. In addition, the Kd in test [5] was 6 nM; in test [6], 7 nM; in [7], 293 nM; in test [8], 14 nM; on Ephrin type-B receptor 6, 570 nM; in test [9], 238 nM. The Kd was found to be 15 nM in test [10]; 1100 nM at Ephrin type-A receptor 4; 10 nM in test [11]; 1560 nM on Ephrin type-A receptor 8; 4 nM in test [12]; 94 nM at CDK2/Cyclin A2. Besides, the Kd in test [13] was found to be 918 nM; on Ephrin type-B receptor 4, 1800 nM; in test [14] it was 87 nM.

Consider `CO[C@@H]1[C@H](N(C)CCOCCOCCOCCNC(=O)CCC2=[N+]3C(=Cc4c(C)cc(C)n4[B-]3(F)F)C=C2)C[C@H]2O[C@]1(C)n1c3ccccc3c3c4c(c5c6ccccc6n2c5c31)C(=O)NC4`, for which the Kd in test [15] was 559 nM; in test [16] it was 745 nM.
